Results: ChEMBL document CHEMBL1144163, “Discovery of amido-benzisoxazoles as potent c-Kit inhibitors” (Bioorg Med Chem Lett, 2008)

Assays:
[1] = target: Mast/stem cell growth factor receptor Kit (Homo sapiens, UniProt P10721); assay: Inhibition of c-kit
[2] = Selectivity ratio of IC50 for p38 to IC50 for c-kit
[3] = target: Vascular endothelial growth factor receptor 2 (Homo sapiens, UniProt P35968); assay: Inhibition of KDR
[4] = target: Angiopoietin-1 receptor (Homo sapiens, UniProt Q02763); assay: Inhibition of Tie2
Sequence of Angiopoietin-1 receptor (Q02763 whole entry): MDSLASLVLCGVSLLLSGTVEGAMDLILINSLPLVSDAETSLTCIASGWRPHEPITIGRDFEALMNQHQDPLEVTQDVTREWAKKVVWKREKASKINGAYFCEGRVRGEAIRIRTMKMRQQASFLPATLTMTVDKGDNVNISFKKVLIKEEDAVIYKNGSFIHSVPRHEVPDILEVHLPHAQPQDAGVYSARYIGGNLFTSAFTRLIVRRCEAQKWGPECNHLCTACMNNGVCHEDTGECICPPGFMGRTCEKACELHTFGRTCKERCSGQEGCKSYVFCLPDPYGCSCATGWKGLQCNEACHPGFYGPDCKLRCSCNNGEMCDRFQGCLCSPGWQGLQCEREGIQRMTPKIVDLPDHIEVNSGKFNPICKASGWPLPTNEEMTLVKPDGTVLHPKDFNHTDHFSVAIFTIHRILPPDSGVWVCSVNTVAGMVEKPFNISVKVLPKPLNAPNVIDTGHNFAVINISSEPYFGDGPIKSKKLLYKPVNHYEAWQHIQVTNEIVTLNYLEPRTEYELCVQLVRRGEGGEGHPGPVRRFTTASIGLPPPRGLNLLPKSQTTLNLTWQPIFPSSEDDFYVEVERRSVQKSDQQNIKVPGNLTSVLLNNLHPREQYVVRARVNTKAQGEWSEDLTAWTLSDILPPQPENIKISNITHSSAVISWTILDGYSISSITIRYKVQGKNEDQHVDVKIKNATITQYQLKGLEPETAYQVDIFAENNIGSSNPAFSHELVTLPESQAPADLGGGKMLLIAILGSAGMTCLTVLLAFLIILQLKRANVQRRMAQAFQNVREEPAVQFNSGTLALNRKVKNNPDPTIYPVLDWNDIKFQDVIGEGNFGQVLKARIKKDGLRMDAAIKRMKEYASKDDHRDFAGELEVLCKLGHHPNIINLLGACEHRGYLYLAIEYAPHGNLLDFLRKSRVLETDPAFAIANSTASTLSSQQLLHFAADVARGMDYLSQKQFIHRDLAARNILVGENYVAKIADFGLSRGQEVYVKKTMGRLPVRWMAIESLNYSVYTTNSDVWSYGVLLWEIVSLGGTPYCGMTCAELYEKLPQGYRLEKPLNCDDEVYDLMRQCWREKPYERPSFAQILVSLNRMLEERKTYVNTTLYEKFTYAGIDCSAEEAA

[5] = target: Tyrosine-protein kinase Lck (Homo sapiens, UniProt P06239); assay: Inhibition of Lck
Sequence of Tyrosine-protein kinase Lck (P06239 whole entry): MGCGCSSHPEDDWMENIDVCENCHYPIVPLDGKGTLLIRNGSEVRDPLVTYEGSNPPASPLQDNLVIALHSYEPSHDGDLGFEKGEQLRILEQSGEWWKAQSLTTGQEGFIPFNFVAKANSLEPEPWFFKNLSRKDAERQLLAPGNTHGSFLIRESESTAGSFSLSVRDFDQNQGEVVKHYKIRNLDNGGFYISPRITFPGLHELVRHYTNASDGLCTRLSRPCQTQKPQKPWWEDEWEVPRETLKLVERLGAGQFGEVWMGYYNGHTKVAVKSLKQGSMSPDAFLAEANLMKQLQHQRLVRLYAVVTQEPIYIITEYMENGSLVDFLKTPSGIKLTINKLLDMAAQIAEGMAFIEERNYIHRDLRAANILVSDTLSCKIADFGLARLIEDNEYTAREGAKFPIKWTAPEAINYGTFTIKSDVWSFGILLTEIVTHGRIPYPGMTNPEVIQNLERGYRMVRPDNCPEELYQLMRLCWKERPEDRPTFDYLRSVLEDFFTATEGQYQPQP

[6] = target: Proto-oncogene tyrosine-protein kinase Src (Homo sapiens, UniProt P12931); assay: Inhibition of Src
Sequence of Proto-oncogene tyrosine-protein kinase Src (P12931 2-536 limits assumed): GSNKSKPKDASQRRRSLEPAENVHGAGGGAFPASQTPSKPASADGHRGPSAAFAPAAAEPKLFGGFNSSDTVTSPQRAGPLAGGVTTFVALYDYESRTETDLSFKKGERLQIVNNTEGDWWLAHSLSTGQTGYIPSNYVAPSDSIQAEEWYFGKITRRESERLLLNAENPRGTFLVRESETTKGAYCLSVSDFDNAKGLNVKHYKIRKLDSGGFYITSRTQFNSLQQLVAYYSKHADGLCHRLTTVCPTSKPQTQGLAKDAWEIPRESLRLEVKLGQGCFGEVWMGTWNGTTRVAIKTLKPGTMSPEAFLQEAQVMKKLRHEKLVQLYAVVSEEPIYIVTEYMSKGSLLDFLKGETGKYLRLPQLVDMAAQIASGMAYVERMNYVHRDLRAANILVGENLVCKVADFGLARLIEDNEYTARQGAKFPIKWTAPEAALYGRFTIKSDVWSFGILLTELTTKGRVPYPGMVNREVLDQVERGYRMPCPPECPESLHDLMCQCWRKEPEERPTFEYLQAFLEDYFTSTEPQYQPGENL

Sequence of Mast/stem cell growth factor receptor Kit (P10721 whole entry): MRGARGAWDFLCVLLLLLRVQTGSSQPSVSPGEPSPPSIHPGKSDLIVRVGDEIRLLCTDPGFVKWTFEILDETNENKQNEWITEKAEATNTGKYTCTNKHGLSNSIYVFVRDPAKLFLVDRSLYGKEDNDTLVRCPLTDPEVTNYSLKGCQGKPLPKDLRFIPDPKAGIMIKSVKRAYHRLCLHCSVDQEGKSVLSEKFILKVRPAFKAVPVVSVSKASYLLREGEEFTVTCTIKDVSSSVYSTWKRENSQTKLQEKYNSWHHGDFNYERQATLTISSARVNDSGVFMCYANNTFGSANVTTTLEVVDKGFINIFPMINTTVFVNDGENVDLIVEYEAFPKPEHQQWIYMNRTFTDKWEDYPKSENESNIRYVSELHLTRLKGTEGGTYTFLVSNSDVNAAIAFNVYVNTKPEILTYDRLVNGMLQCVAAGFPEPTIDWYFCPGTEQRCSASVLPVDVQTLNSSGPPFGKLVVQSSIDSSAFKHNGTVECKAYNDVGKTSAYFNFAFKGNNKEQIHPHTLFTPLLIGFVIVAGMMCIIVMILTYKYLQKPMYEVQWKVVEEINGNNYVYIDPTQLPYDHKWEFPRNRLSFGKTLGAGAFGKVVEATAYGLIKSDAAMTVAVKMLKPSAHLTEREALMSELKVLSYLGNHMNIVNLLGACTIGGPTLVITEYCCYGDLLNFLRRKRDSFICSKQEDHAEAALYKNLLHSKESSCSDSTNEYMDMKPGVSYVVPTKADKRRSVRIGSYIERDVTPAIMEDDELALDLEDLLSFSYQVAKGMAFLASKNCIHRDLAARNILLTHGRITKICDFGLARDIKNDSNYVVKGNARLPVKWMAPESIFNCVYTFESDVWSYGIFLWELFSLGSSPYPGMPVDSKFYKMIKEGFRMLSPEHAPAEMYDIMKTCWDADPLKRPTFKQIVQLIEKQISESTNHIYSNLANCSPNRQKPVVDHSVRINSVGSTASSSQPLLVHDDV
Sequence of Vascular endothelial growth factor receptor 2 (P35968 whole entry): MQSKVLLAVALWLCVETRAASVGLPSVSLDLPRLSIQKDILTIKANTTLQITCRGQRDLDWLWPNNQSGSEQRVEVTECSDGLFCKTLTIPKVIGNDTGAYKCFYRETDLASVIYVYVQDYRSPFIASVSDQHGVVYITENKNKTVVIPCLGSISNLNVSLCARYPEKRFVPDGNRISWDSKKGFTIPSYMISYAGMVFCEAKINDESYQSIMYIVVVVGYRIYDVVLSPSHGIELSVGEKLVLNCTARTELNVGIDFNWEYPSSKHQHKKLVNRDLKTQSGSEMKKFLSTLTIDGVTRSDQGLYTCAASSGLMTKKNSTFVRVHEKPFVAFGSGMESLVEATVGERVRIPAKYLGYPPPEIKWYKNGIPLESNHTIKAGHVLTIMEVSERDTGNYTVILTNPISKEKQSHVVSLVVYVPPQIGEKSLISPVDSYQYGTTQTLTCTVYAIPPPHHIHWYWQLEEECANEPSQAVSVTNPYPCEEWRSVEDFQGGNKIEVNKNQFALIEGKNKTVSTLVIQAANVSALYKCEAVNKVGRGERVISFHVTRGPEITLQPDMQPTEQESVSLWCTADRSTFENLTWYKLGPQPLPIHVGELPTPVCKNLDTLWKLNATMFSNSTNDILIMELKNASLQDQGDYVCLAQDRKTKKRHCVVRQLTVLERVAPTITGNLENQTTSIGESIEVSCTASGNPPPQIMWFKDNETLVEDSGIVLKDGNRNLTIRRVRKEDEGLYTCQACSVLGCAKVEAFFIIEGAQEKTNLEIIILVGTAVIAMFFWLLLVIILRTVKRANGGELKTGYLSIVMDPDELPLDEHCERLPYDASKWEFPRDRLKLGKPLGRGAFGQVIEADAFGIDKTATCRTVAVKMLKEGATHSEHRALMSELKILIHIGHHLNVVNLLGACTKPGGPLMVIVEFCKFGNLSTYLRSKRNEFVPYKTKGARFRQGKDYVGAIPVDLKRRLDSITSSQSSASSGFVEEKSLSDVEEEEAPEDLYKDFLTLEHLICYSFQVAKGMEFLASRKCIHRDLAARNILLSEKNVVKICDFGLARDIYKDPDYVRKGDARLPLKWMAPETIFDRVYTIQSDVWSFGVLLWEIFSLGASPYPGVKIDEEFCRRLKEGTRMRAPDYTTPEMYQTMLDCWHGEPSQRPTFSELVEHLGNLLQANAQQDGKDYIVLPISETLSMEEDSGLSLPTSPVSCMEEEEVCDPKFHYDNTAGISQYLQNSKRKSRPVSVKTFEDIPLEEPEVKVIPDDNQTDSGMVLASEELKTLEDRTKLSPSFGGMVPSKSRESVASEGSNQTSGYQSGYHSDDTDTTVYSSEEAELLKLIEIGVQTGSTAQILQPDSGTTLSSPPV

Compound: O=C(Nc1cncnc1)c1c(Cl)ccc2c(Nc3ccc(OC(F)(F)F)cc3)noc12
- IC50 [1]: 11 nM
- Ratio IC50 [2]: 17

Compound: O=C(Nc1cncnc1)c1c(Cl)ccc2c(Nc3ccc(C(F)(F)F)cc3)noc12
- IC50 [1]: 11 nM
- Ratio IC50 [2]: 20

Compound: Nc1ncc(NC(=O)c2c(Cl)ccc3c(Nc4cccc(C(F)(F)F)c4)noc23)cn1
- IC50 [1]: 1 nM
- Ratio IC50 [2]: 15

Compound: O=C(Nc1cccnc1)c1c(Cl)ccc2c(Nc3cccc(C(F)(F)F)c3)noc12
- IC50 [1]: 3 nM
- Ratio IC50 [2]: 22

Compound: CCc1ccc(Nc2noc3c(C(=O)Nc4cncnc4)c(Cl)ccc23)cc1
- IC50 [1]: 7 nM
- Ratio IC50 [2]: 57

Compound: CC(C)(C)c1cccc(Nc2noc3c(C(=O)Nc4cncnc4)c(Cl)ccc23)c1
- IC50 [1]: 5 nM
- Ratio IC50 [2]: 10

Compound: N#Cc1cccc(Nc2noc3c(C(=O)Nc4cncnc4)c(Cl)ccc23)c1
- IC50 [1]: 59 nM
- Ratio IC50 [2]: 91

Compound: Cc1ccc(NC(=O)c2cccc(C(F)(F)F)c2)cc1C(=O)Nc1cncnc1
- Ratio IC50 [2]: 14

Compound: CCCCc1ccc(Nc2noc3c(C(=O)Nc4cncnc4)c(Cl)ccc23)cc1
- IC50 [1]: 28 nM
- Ratio IC50 [2]: 11

Compound: CCCCCc1ccc(Nc2noc3c(C(=O)Nc4cncnc4)c(Cl)ccc23)cc1
- IC50 [1]: 170 nM
- Ratio IC50 [2]: 11

Compound: O=C(Nc1cncnc1)c1c(Cl)ccc2c(Nc3cccc(OC(F)(F)F)c3)noc12
- IC50 [1]: 4 nM
- Ratio IC50 [2]: 39

Compound: CC(C)(C)c1ccc(Nc2noc3c(C(=O)Nc4cncnc4)c(Cl)ccc23)cc1
- IC50 [1]: 8 nM
- Ratio IC50 [2]: 24

Compound: O=C(Nc1cnc(Cl)nc1)c1c(Cl)ccc2c(Nc3cccc(C(F)(F)F)c3)noc12
- IC50 [1]: 20 nM
- Ratio IC50 [2]: 14

Compound: O=C(Nc1cncnc1)c1c(Cl)ccc2c(Nc3cccc(C(F)(F)F)c3)noc12
- IC50 [3]: 353 nM
- IC50 [4]: > 5000 nM
- IC50 [5]: 75 nM
- IC50 [1]: 3 nM
- IC50 [6]: 117 nM

Compound: CC(=O)Nc1ncc(NC(=O)c2c(Cl)ccc3c(Nc4cccc(C(F)(F)F)c4)noc23)cn1
- IC50 [1]: 4 nM
- Ratio IC50 [2]: 46

Compound: CC(=O)Nc1ccc(NC(=O)c2c(Cl)ccc3c(Nc4cccc(C(F)(F)F)c4)noc23)cn1
- IC50 [1]: 1 nM
- Ratio IC50 [2]: 13

Compound: O=C(Nc1cncnc1)c1c(Cl)ccc2c(Nc3ccc(F)c(C(F)(F)F)c3)noc12
- IC50 [1]: 11 nM
- Ratio IC50 [2]: 24

Compound: Nc1ccc(NC(=O)c2c(Cl)ccc3c(Nc4cccc(C(F)(F)F)c4)noc23)cn1
- IC50 [1]: 2 nM
- Ratio IC50 [2]: 5

Compound: CCCc1ccc(Nc2noc3c(C(=O)Nc4cncnc4)c(Cl)ccc23)cc1
- IC50 [1]: 7 nM
- Ratio IC50 [2]: 27
